Measured values taken from patent EP0726072A2, “Composition for the treatment of hypertension and congestive heart failure, containing an angiotensin II antagonist and an endopeptidase inhibitor” (BRISTOL-MYERS SQUIBB COMPANY, priority 1995, dated 1996).

What was measured:
angiotensin II receptors = experiment: Inhibition of the pressor response to angiotensin II in conscious cardiomyopathic hamsters; type: in vivo, hamsters of the BIO TO-2 strain; conditions: for Change in mean arterial pressure: pressor response to angiotensin II 100 ng/kg i.v.
Protocol: The studies described in this experiment were conducted in male hamsters of the BIO TO-2 strain when they were approximately 260 days of age and weighed on average 115 g. These animals develop a genetic form of cardiomyopathy that progresses uniformly among animals through different stages of heart failure. By 240 - 300 days of age the cardiomyopathic hamsters are characterized (as compared with control hamsters) by low mean arterial pressure, a 40% reduction in cardiac output and a decrease in renal blood flow. They display elevated cardiac filling pressure, depressed ventricular function, increased peripheral vascular resistance and have an 8-10-fold increase in plasma atrial natriuretic peptide concentration.
The experiments were conducted in conscious, unrestrained, cardiomyphathic hamsters three hours after placement of cardivascular catheters using brief anesthesia. The catheters allowed measurement of mean arterial pressure, left ventricular end diastolic pressure, left ventricular systolic pressure and heart rate, and provided a means for the administration of agents intravenously.
Preliminary experiments were conducted in conscious cardiomyopathic hamsters to determine a dose regimen of BMS 186295 that would nearly completely block the pressor response to angiotensin II for at least two hours. The pressor responses to two challenges of angiotensin II (100 ng/kg, i.v. dissolved in 0.9% sodium chloride, 1 ml/kg) were determined. This dose of angiotensin II produced over a 30% increase in mean arterial pressure. Based on the preliminary experiments, BMS 186295 was administered to 5 cardiomyopathic hamsters at 30 µmol/kg, i.v. followed by continuous i.v. infusion at 1 µmol/kg per min. Challenges of angiotensin II were then repeated at 10- to 30-minute intervals up to 150 minutes following the bolus injection of BMS 186295.

1K1C hypertensive dogs = experiment: Haemodynamic, renal and hormonal effects in conscious 1-kidney-1-clip hypertensive dogs; type: in vivo
Protocol: The studies described in this experiment were conducted in dogs that had been rendered hypertensive by prior unilateral nephrectomy and constriction of the remaining renal artery. This model is characterized by normal basal levels of plasma renin activity and is relatively resistant to the anti-hypertensive activity of angiotensin converting enzyme inhibitors and AT1 receptor antagonists.
The following experiments were conducted in fasted 1K1C hypertensive dogs lightly restrained in standard canine slings. An indwelling arterial catheter was accessed via a subcutaneous port for measurement of blood pressure via a Gould-Statham pressure transducer. Mean arterial pressure (MAP) was continuously recorded on a Gould chart writer and stored electronically using a Po-Ne-Mah data acquisition system. During each study, urine was collected at 20 minute intervals via a Foley bladder catheter for determination of urine volume. The concentrations of urinary sodium and potassium were measured using ion-selective electrodes and their rates of urinary excretion (µEq/min) were calculated. Glomerular filtration rate (GFR) and effective renal plasma flow (ERPF) were determined by the renal clearances of exogenous creatinine and para-aminohippuric acid (PAH), respectively. The concentrations of creatinine and PAH in sequential samples of urine and plasma were determined by spectrophotometric assays and the clearances were calculated by the standard formula.
Arterial blood samples were drawn at the end of the control period and at 60 minute intervals thereafter for determination of the plasma concentrations of atrial natriuretic peptide (ANP), cyclic GMP and plasma renin activity (PRA) by separate radioimmunoassays. The plasma and urine samples were preserved and the assays were conducted according to standard radioimmunoassay procedures. Urinary excretion rates of cyclic GMP and ANP were calculated and expressed as pmol/min and fmol/min, respectively.
In each study, baseline measurements were obtained during two 20 minute control periods. One of the treatments was then administered and sampling continued at 20 minute intervals for three hours.
To minimize inter-animal variability, each data point was expressed as the change from the average control value for that parameter. Significant differences among treatments were identified by analysis of variance for repeated measures. […] Results are given as mean ± SEM.

[1] = 20 min after treatment, 30 µmol/kg iv of each agent
[2] = 40 min after treatment, 30 µmol/kg iv of each agent
[3] = 60 min after treatment, 30 µmol/kg iv of each agent
[4] = 80 min after treatment, 30 µmol/kg iv of each agent
[5] = 100 min after treatment, 30 µmol/kg iv of each agent
[6] = 120 min after treatment, 30 µmol/kg iv of each agent
[7] = 140 min after treatment, 30 µmol/kg iv of each agent
[8] = 160 min after treatment, 30 µmol/kg iv of each agent
[9] = 180 min after treatment, 30 µmol/kg iv of each agent

## CCCCC1=NC2(CCCC2)C(=O)N1Cc1ccc(-c2ccccc2-c2nnn[nH]2)cc1 [BMS 186295, 2-butyl-6,7,8,9-tetrahydro-3-[[2'-(1H-tetrazol-5-yl)[1,1'-biphenyl]-4-yl]-methyl]-1,3-diazaspiro[4.4]nonan-4-one]
Angiotensin II receptors; following 30 µmol/kg, i.v. then 1 µmol/kg per min, up to 150 minutes
  pressor responses to angiotensin II, of the response before the administration of the inhibitor: less than 17%
Angiotensin II receptors; 10′ after 30 µmol/kg, i.v. followed by 1 µmol/kg/min, i.v.
  Change in mean arterial pressure: 3±2 mm Hg
Angiotensin II receptors; 20′ after 30 µmol/kg, i.v. followed by 1 µmol/kg/min, i.v.
  Change in mean arterial pressure: 2±1 mm Hg
Angiotensin II receptors; 30′ after 30 µmol/kg, i.v. followed by 1 µmol/kg/min, i.v.
  Change in mean arterial pressure: 3±2 mm Hg
Angiotensin II receptors; 40′ after 30 µmol/kg, i.v. followed by 1 µmol/kg/min, i.v.
  Change in mean arterial pressure: 2±1 mm Hg
Angiotensin II receptors; 50′ after 30 µmol/kg, i.v. followed by 1 µmol/kg/min, i.v.
  Change in mean arterial pressure: 1±1 mm Hg
Angiotensin II receptors; 60′ after 30 µmol/kg, i.v. followed by 1 µmol/kg/min, i.v.
  Change in mean arterial pressure: 4±1 mm Hg
Angiotensin II receptors; 70′ after 30 µmol/kg, i.v. followed by 1 µmol/kg/min, i.v.
  Change in mean arterial pressure: 5±2 mm Hg
Angiotensin II receptors; 80′ after 30 µmol/kg, i.v. followed by 1 µmol/kg/min, i.v.
  Change in mean arterial pressure: 4±1 mm Hg
Angiotensin II receptors; 90′′ after 30 µmol/kg, i.v. followed by 1 µmol/kg/min, i.v.
  Change in mean arterial pressure: 3±1 mm Hg
Angiotensin II receptors; 150′ after 30 µmol/kg, i.v. followed by 1 µmol/kg/min, i.v.
  Change in mean arterial pressure: 2±1 mm Hg
Angiotensin II receptors; 120 min after 30 µmol/kg, i.v. followed by 1 µmol/kg/min, i.v.
  Change in mean arterial pressure: 3±1 mm Hg
Angiotensin II receptors; -10′, before BMS-186295
  Change in mean arterial pressure: 31±3 mm Hg
Angiotensin II receptors; -20′, before BMS-186295
  Change in mean arterial pressure: 29±2 mm Hg
1K1C hypertensive dogs; 30 µmol/kg iv of each agent, cumulative over 3 hours
  increase in the amount of sodium excreted during the 3 hours after injection: 5.4±1.0 mEq/3 hr
1K1C hypertensive dogs; [1]
  ANP Excretion, Change from control: -0.7 ± 0.5 fmol/min
  Cyclic GMP Excretion, Change from control: -372 ± 240 pmol/min
  Effective Renal Plasma Flow, Change from control: -68 ± 30 mL/min
  Glomerular Filtration Rate, Change from control: -4 ± 2 mL/min
  Mean Arterial Pressure, Change from control: -1±1 mm Hg
  Sodium Excretion, Change from control: 23±9 µEq/min
  Urine Volume, Change from control: 0.01 ± 0.07 mL/min
1K1C hypertensive dogs; [2]
  ANP Excretion, Change from control: -0.6 ± 0.5 fmol/min
  Cyclic GMP Excretion, Change from control: -277 ± 255 pmol/min
  Effective Renal Plasma Flow, Change from control: -54 ± 35 mL/min
  Glomerular Filtration Rate, Change from control: -2 ± 5 mL/min
  Mean Arterial Pressure, Change from control: -10±1 mm Hg
  Sodium Excretion, Change from control: 41±13 µEq/min
  Urine Volume, Change from control: 0.09 ± 0.14 mL/min
1K1C hypertensive dogs; [3]
  ANP Excretion, Change from control: -0.2 ± 0.3 fmol/min
  Cyclic GMP Excretion, Change from control: -150 ± 203 pmol/min
  Effective Renal Plasma Flow, Change from control: -35 ± 24 mL/min
  Glomerular Filtration Rate, Change from control: 6 ± 0 mL/min
  Mean Arterial Pressure, Change from control: -8±2 mm Hg
  Plasma Renin Activity, Change from control: 1.28±0.51 pmol AI/ml/hr
  Sodium Excretion, Change from control: 36±8 µEq/min
  Urine Volume, Change from control: 0.12 ± 0.07 mL/min
1K1C hypertensive dogs; [4]
  ANP Excretion, Change from control: -0.4 ± 0.3 fmol/min
  Cyclic GMP Excretion, Change from control: -309 ± 199 pmol/min
  Effective Renal Plasma Flow, Change from control: -13 ± 9 mL/min
  Glomerular Filtration Rate, Change from control: 5 ± 2 mL/min
  Mean Arterial Pressure, Change from control: -5±2 mm Hg
  Sodium Excretion, Change from control: 27±6 µEq/min
  Urine Volume, Change from control: 0.05 ± 0.06 mL/min
1K1C hypertensive dogs; [5]
  ANP Excretion, Change from control: -0.6 ± 0.4 fmol/min
  Cyclic GMP Excretion, Change from control: -266 ± 193 pmol/min
  Effective Renal Plasma Flow, Change from control: -1 ± 10 mL/min
  Glomerular Filtration Rate, Change from control: 3 ± 4 mL/min
  Mean Arterial Pressure, Change from control: -4±1 mm Hg
  Sodium Excretion, Change from control: 22±3 µEq/min
  Urine Volume, Change from control: -0.02 ± 0.09 mL/min
1K1C hypertensive dogs; [6]
  ANP Excretion, Change from control: -0.5 ± 0.4 fmol/min
  Cyclic GMP Excretion, Change from control: -283 ± 236 pmol/min
  Effective Renal Plasma Flow, Change from control: -8 ± 17 mL/min
  Glomerular Filtration Rate, Change from control: 4 ± 3 mL/min
  Mean Arterial Pressure, Change from control: -1±2 mm Hg
  Plasma Renin Activity, Change from control: 1.49±0.57 pmol AI/ml/hr
  Sodium Excretion, Change from control: 30±4 µEq/min
  Urine Volume, Change from control: -0.02 ± 0.10 mL/min
1K1C hypertensive dogs; [7]
  ANP Excretion, Change from control: -0.6 ± 0.4 fmol/min
  Cyclic GMP Excretion, Change from control: -449 ± 206 pmol/min
  Effective Renal Plasma Flow, Change from control: 8 ± 3 mL/min
  Glomerular Filtration Rate, Change from control: 0 ± 5 mL/min
  Mean Arterial Pressure, Change from control: -1±2 mm Hg
  Sodium Excretion, Change from control: 28±7 µEq/min
  Urine Volume, Change from control: -0.07 ± 0.12 mL/min
1K1C hypertensive dogs; [8]
  ANP Excretion, Change from control: -0.5 ± 0.4 fmol/min
  Cyclic GMP Excretion, Change from control: -391 ± 199 pmol/min
  Effective Renal Plasma Flow, Change from control: -14 ± 12 mL/min
  Glomerular Filtration Rate, Change from control: 0 ± 7 mL/min
  Mean Arterial Pressure, Change from control: 0±2 mm Hg
  Sodium Excretion, Change from control: 30±7 µEq/min
  Urine Volume, Change from control: -0.07 ± 0.16 mL/min
1K1C hypertensive dogs; [9]
  ANP Excretion, Change from control: -0.6 ± 0.4 fmol/min
  Cyclic GMP Excretion, Change from control: -611 ± 346 pmol/min
  Effective Renal Plasma Flow, Change from control: -12 ± 11 mL/min
  Glomerular Filtration Rate, Change from control: 0 ± 4 mL/min
  Mean Arterial Pressure, Change from control: -1±3 mm Hg
  Plasma Renin Activity, Change from control: 1.24±0.62 pmol AI/ml/hr
  Sodium Excretion, Change from control: 30±2 µEq/min
  Urine Volume, Change from control: -0.02 ± 0.07 mL/min
1K1C hypertensive dogs; Control, before treatment
  ANP Excretion: 1.5 ± 0.6 fmol/min
  Cyclic GMP Excretion: 1122 ± 389 pmol/min
  Effective Renal Plasma Flow: 127 ± 41 mL/min
  Glomerular Filtration Rate: 45 ± 10 mL/min
  Mean Arterial Pressure: 157±7 mm Hg
  Plasma Renin Activity: 0.55±0.07 pmol AI/ml/hr
  Sodium Excretion: 18±2 µEq/min
  Urine Volume: 0.43 ± 0.16 mL/min
1K1C hypertensive dogs; summary of TABLE 2, 30 µmol/kg iv of each agent, 3 hours
  sodium excretion, effect in words: increased
1K1C hypertensive dogs; summary of TABLE 3, 30 µmol/kg iv of each agent, 3 hours
  urine volume, effect in words: increased
1K1C hypertensive dogs; summary of TABLE 6, 30 µmol/kg iv of each agent
  Urinary excretion of ANP, effect in words: did not affect
1K1C hypertensive dogs; summary of TABLE 8, 30 µmol/kg iv of each agent
  PRA, effect in words: significantly increased
1K1C hypertensive dogs; summary of Table 1, 30 µmol/kg iv of each agent, 3 hours
  mean arterial pressure (MAP), effect in words: signigicantly reduced
